US8735391B2, “Synthesis of functionalized octahydro-isoquinolin-1-one-8-carboxamides, octahydro-isoquinolin-1-one-8-carboxylic esters and analogs, and therapeutic methods” (University of Kansas, priority 2008, dated 2014)

What was measured:
KOR [1] = biological target: T1, KOR (Homo sapiens, UniProt P41145); experiment: [35S]GTPγS binding functional agonist assay on membranes of CHO cells expressing hKOR (reference agonist U69593); format: biochemical; parameters: expressed in transfected cells; host or cells: CHO cells, stably transfected; crude membrane fractions; conditions: for KOR agonist (average percent efficacy relative to cognate agonist): test compound at 10 micromolar, N=4, reference agonist = 100%, CHO-cell line expressing hKOR; for Emax values relative to U69593: [35S]GTPγS data-fit top relative to reference agonist U69593
T1 sequence (P41145 whole entry): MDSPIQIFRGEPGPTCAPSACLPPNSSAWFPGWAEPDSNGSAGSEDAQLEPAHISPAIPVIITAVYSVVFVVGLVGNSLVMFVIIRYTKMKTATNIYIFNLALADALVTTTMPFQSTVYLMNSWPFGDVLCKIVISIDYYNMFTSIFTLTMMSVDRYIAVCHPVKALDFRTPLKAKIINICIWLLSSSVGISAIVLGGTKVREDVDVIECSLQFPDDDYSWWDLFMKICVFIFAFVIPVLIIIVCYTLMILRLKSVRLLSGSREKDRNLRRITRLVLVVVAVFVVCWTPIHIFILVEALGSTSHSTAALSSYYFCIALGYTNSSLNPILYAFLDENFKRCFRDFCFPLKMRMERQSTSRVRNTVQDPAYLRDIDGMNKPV
Protocol: The compounds prepared herein were tested for bioactivity with opioid receptors. Agonist assays: Data represent the percent efficacy (relative to cognate agonist) of the test compound at 10 micromolar. The response to a saturating concentration of a reference antagonist or to vehicle (usually none or negligible) is set to 0%. […] The response inhibition elicited by a saturating concentration of reference antagonist is set to 100%; the response inhibition (usually none or negligible) elicited by vehicle is set to 0%. The following tables provide data related to the bioactivity for opioid receptors of the compounds described herein.
Table 6 provides data that represent the average percent efficacy (N=4; relative to cognate agonist) of the test compound at 10 micromolar concentration. The response to a saturating concentration of cognate/reference agonist is set to 100%; the response to a saturating concentration of a reference antagonist or to vehicle (usually none or negligible) is set to 0%. All functional assays are performed on stably transfected CHO-cell lines expressing hKOR, hMOR or hDOR.
(§1) Serial dilutions of the test and reference compounds are made in binding buffer at 2× assay concentration (final assay concentrations ranging from 0.1 nM to 10 μM). Crude membrane fractions (1.8 to 3.5 cm2/well) (prepared from 10-cm plates by harvesting PBS-rinsed monolayers, resuspending and lysing in chilled, hypotonic 50 mM Tris-HCl, pH 7.4, centrifuging at 20,000×g, decanting the supernatant and storing at −80 degrees centigrade; typically, one 10-cm plate provides sufficient material for 24 wells) are resuspended in 1.2 ml of assay buffer containing 20 μM GDP, wheat germ agglutinin (WGA)-coated scintillation proximity beads (2.4 mg), and [35S]GTPγS (300 pM final). The suspension is then added (50 μl/well) to 50 μl of the 2× test or reference compounds (each concentration assayed in triplicate) in flexible transparent PET 96-well plates. The reaction plate is sealed and incubated for 90 min at room temperature, then centrifuged for 5 min at 216×g, and finally loaded into a Wallac MicroBeta TriLux counter. Non-specific [35S]GTPγS binding is assessed at the maximum concentration of reference agonist in the presence of 10 μM antagonist. The background signal is measured at 10 μM reference agonist in the presence of 10 μM unlabeled GTPγS. Raw data (dpm) representing total [35S]GTPγS binding (i.e., specific+non-specific binding) are calculated as a percentage of the maximum response by the reference agonist (in this case U69593).
as §1, with “GTPγS.” for “GTPγS. Raw data (dpm) representing total [35S]GTPγS binding (i.e., specific+non-specific binding) are calculated as a percentage of the maximum response by the reference agonist (in this case U69593).”

KOR [2] = biological target: T1, KOR; experiment: Opioid secondary binding, KOR (Tables 4, 5, 8, 9); conditions: Opioid secondary binding activity for Formula 10 analogs; read-out: KOR, Ki

| Compound | KOR agonist (average percent efficacy relative to cognate agonist) (KOR [1]) [%] | Ki (KOR [2]) [nM] | Emax values relative to U69593 (KOR [1]) [%] |
| --- | --- | --- | --- |
| COc1ccc(CNC(=O)[C@@H]2CC=C[C@@H]3CCN(C4CCCCC4)C(=O)[C@@H]32)cc1 (racemic) [compound 8926] | 29 | 2690 | – |
| O=C([C@@H]1CC=C[C@@H]2CCN(C3CC3)C(=O)[C@@H]21)N1CCN(c2ccccc2)CC1 (racemic) [compound 8913] | 27.5 | 3190 | – |
| O=C(NCc1cccnc1)[C@@H]1CC=C[C@@H]2CCN(C3CCCCC3)C(=O)[C@@H]21 (racemic) [compound 8931] | 67.7 | 552 | – |
| O=C(NC1CCCCC1)[C@@H]1CC=C[C@@H]2CCN(C3CC3)C(=O)[C@@H]21 (racemic) [compound 8921] | 4.1 | – | – |
| COc1ccc(CNC(=O)[C@@H]2CC=C[C@@H]3CCN(Cc4ccc(OC)c(OC)c4)C(=O)[C@@H]32)cc1 (racemic) [compound 8929] | 3.6 | – | – |
| CCCCN1CC[C@H]2C=CC[C@@H](C(=O)NCCc3ccccc3)[C@H]2C1=O (racemic) [compound 8918] | 12.6 | 3270 | – |
| O=C(NC1CCCCC1)[C@@H]1CC=C[C@@H]2CCN(Cc3ccccc3)C(=O)[C@@H]21 (racemic) [compound 8920, 2-Benzyl-N-cyclohexyl-1-oxo-1,2,3,4,4a,7,8,8a-octahydroisoquinoline-8-carboxamide] | 94.2 | 298 | – |
| O=C([C@@H]1CC=C[C@@H]2CCN(C3CC3)C(=O)[C@@H]21)N1CCOCC1 (racemic) [compound 8909] | 7.8 | – | – |
| O=C(Nc1ccc(Cl)cc1Cl)[C@@H]1CC=C[C@@H]2CCN(Cc3ccc(Cl)c(Cl)c3)C(=O)[C@@H]21 (racemic) [compound 8951] | 23.2 | 2440 | – |
| O=C(Nc1ccc(Cl)cc1Cl)[C@@H]1CC=C[C@@H]2CCN(C3CCCCC3)C(=O)[C@@H]21 (racemic) [compound 8949] | 67.9 | 506 | – |
| CCCCN1CC[C@H]2C=CC[C@@H](C(=O)NC3CCCCC3)[C@H]2C1=O (racemic) [compound 8923] | 67.6 | 1030 | – |
| O=C(NCc1cccnc1)[C@@H]1CC=C[C@@H]2CCN(Cc3ccc(Cl)c(Cl)c3)C(=O)[C@@H]21 (racemic) [compound 8932] | 74.6 | 693 | – |
| O=C(Nc1cccc(Cl)c1)[C@@H]1CC=C[C@@H]2CCN(CC3CCCCC3)C(=O)[C@@H]21 (racemic) [compound 11888] | – | 68 | 70 |
| Cc1cc(NC(=O)[C@@H]2CC=C[C@@H]3CCN(c4ccccc4)C(=O)[C@@H]32)ccc1Cl (racemic) [compound 11866] | – | 33.5 | 123 |
| O=C(Nc1ccc(Cl)c(C(F)(F)F)c1)[C@@H]1CC=C[C@@H]2CCN(C3CCCCC3)C(=O)[C@@H]21 (racemic) [compound 8955] | 93.2 | 111 | – |
| O=C(Nc1ccc(Cl)c(C(F)(F)F)c1)[C@@H]1CC=C[C@@H]2CCN(C3CC3)C(=O)[C@@H]21 (racemic) [compound 8954] | 66.4 | 493 | – |
| CCCCN1CC[C@H]2C=CC[C@@H](C(=O)Nc3ccc(OC)cc3)[C@H]2C1=O (racemic) [compound 8946] | 23.5 | 5040 | – |

| Compound | KOR agonist (average percent efficacy relative to cognate agonist) (KOR [1]) [%] | Ki (KOR [2]) [nM] | Emax values relative to U69593 (KOR [1]) [%] |
| --- | --- | --- | --- |
| O=C(Nc1ccc(Cl)cc1C(F)(F)F)[C@@H]1CC=C[C@@H]2CCN(c3ccccc3)C(=O)[C@@H]21 (racemic) [compound 11864] | – | 68 | 119 |
| O=C(Nc1ccc(Cl)cc1Cl)[C@@H]1CC=C[C@@H]2CCN(C3CC3)C(=O)[C@@H]21 (racemic) [compound 8948] | 29.6 | – | – |
| CCCCN1CC[C@H]2C=CC[C@@H](C(=O)NCc3ccc(OC)cc3)[C@H]2C1=O (racemic) [compound 8927] | 8.7 | – | – |
| CCCCN1CC[C@H]2C=CC[C@@H](C(=O)Nc3ccc(Cl)cc3Cl)[C@H]2C1=O (racemic) [compound 8950] | 72.9 | 1140 | – |
| COc1ccc(CNC(=O)[C@@H]2CC=C[C@@H]3CCN(Cc4ccccc4)C(=O)[C@@H]32)cc1 (racemic) [compound 8924] | 18.8 | 3730 | – |
| O=C(Nc1ccc(Br)c(C(F)(F)F)c1)[C@@H]1CC=C[C@@H]2CCN(c3ccccc3)C(=O)[C@@H]21 (racemic) [compound 11863] | – | 12 | 95 |
| O=C(NCCc1ccccc1)[C@@H]1CC=C[C@@H]2CCN(C3CC3)C(=O)[C@@H]21 (racemic) [compound 8917] | 6.6 | – | – |
| O=C(NCc1ccc(Cl)c(C(F)(F)F)c1)[C@@H]1CC=C[C@@H]2CCN(c3ccccc3)C(=O)[C@@H]21 (racemic) [compound 11862] | – | 98 | 81 |
| O=C(NCc1cccnc1)[C@@H]1CC=C[C@@H]2CCN(C3CC3)C(=O)[C@@H]21 (racemic) [compound 8930] | 4 | – | – |
| CCCCN1CC[C@H]2C=CC[C@@H](C(=O)N3CCN(c4ccccc4)CC3)[C@H]2C1=O (racemic) [compound 8914] | 9.9 | – | – |
| O=C(Nc1ccc(Cl)c(C(F)(F)F)c1)[C@@H]1CC=C[C@@H]2CCN(Cc3ccc(Cl)c(Cl)c3)C(=O)[C@@H]21 (racemic) [compound 8957] | 33.1 | – | – |
| O=C(Nc1ccccc1)[C@@H]1CC=C[C@@H]2CCN(C3CC3)C(=O)[C@@H]21 (racemic) [compound 8938] | 21.8 | 1400 | – |
| O=C([C@@H]1CC=C[C@@H]2CCN(C3CCCCC3)C(=O)[C@@H]21)N1CCOCC1 (racemic) [compound 8910] | 42.7 | 2950 | – |
| CCCCNC(=O)[C@@H]1CC=C[C@@H]2CCN(CCCC)C(=O)[C@@H]21 (racemic) [compound 8919] | 40.3 | 2810 | – |
| CCCCN1CC[C@H]2C=CC[C@@H](C(=O)N3CCOCC3)[C@H]2C1=O (racemic) [compound 8911] | 8.3 | – | – |
| COc1ccc(NC(=O)[C@@H]2CC=C[C@@H]3CCN(C4CC4)C(=O)[C@@H]32)cc1 (racemic) [compound 8944] | 1 | – | – |
